According to US8664407B2, “Chemical linkers with single amino acids and conjugates thereof” (Medarex, LLC, priority 2007, dated 2014):

Tests used:
[1] = test system: 786-O; assay: In vivo study: 786-O tumor xenograft, toxin-conjugated anti-CD70 HuMAb 2H5; details: 0.03 μmol toxin dosage, IP, dosed on Day 0; CD70.1 antibody conjugates; 786-O tumors in male CB17.SCID mice
Procedure: 786-O (ATCC Accession No. CRL-1932) cells were expanded in vitro using standard laboratory procedures. Male CB17.SCID mice (Taconic, Hudson, N.Y.) between 6-8 weeks of age were implanted subcutaneously in the right flank with 2.5 million 786-O in 0.2 ml of PBS/Matrigel (1:1) per mouse. Mice were weighed and measured for tumors three dimensionally using an electronic caliper twice weekly after implantation. Tumor volumes were calculated as height×width×length. Mice with tumors averaging 200 mm^3 were randomized into treatment groups. The mice were dosed intraperitoneally with PBS vehicle, toxin-conjugated isotype control antibody or toxin-conjugated anti-CD70 HuMAb 2H5 on Day 0. Each group contained 8 mice.
FIGS. 1, 2, 5, and 6 show the mean tumor volume versus days past dosing and FIGS. 3, 4, 7, and 8 show the median tumor volume versus days past dosing (0.03 μmol—FIGS. 1, 3, 5, and 7; 0.005 μmol—FIGS. 2, 4, 6, and 8).

[2] = target: T1, bovine spleen cathepsin B (Bos taurus, UniProt P07688); assay: Cathepsin B mediated cleavage of single amino acid linkers (RP-HPLC, A340); assay type: biochemical; details: cysteine modified compound, activated cathepsin B, pH 5.0, 37° C.
T1 construct: bovine spleen cathepsin B (Sigma product code C-6286) was prepared by dissolving lyophilized solid; purchased Sigma C-6286; host or cells: bovine spleen (tissue-derived)
Procedure: (§1) A panel of single amino acid compounds, each differing with respect to amino acid composition but of otherwise similar structure, was assayed for cathepsin B activity. The following compounds were tested: compounds A,B,C,D,E and F. The appearance of cathepsin B-mediated products was monitored by application to RP-HPLC with quantitation of drug products by their absorbance at 340 nm.
(§2) Cathepsin B Enzyme Assay: A stock solution of bovine spleen cathepsin B (Sigma product code C-6286) was prepared by dissolving lyophilized solid (6 mg at 56% protein) in 25 mM sodium acetate/1 mM EDTA pH 5.0 buffer (10 mL). Enzyme activation was accomplished by mixing the stock solution (50 uL) with activation buffer (100 ul) comprised of 30 mM DTT/15 mM EDTA, followed by incubation at room temperature for 15 minutes. The activated cathepsin B was diluted 1:1 with a solution of 25 mM sodium acetate/1 mM EDTA, pH 5.0 prior to use. To assay for drug release, cysteine modified compound (4 uL of 2.5 mM solution in DMSO) was added to 25 mM sodium acetate/1 mM EDTA pH 5.0 buffer (86 uL) and activated cathepsin B (10 uL at 3.6 U/mL). Samples were incubated at 37° C. for appropriate time points and stopped with methanol (100 uL).
(§3) Compounds samples (40 uL) were applied to a Waters 2795 HPLC system fitted with a reverse phase column (Waters Nova-pak C18, 3.9×150 mm column, product code WAT086344). Sample chromatography was accomplished using a dual mobile phase system comprised of water/0.1% TFA (A buffer) and acetonitrile/0.1% TFA (B buffer) with a gradient elution of 10-100% B buffer over 20 min at 1.0 mL/min. compounds were detected by its absorbance at 340 nm (A340).

[3] = target: T2, cathepsin B (Bos taurus, UniProt P07688); assay: as above; assay type: biochemical, bovine; details: bovine, activated bovine spleen cathepsin B (isolated enzyme), cysteine modified compound, pH 5.0, 37° C., read-out: Approx. substrate half-life (converted)
T2 construct: bovine spleen cathepsin B (Sigma product code C-6286) was prepared by dissolving lyophilized solid; purchased Sigma C-6286; host or cells: bovine spleen (tissue-derived)
Procedure: as §1, §2, §3

| SMILES | Efficacy (tumor volume versus days past dosing), descending order [1] | Cathepsin B cleavage [2] | half-life at 100 µM [3] | Cathepsin B cleavage ([2]; listed as compound D) | Cathepsin B cleavage ([2]; listed as compound A) |
| --- | --- | --- | --- | --- | --- |
| CN1CCN(C(=O)Oc2cc3c(c4ccccc24)[C@H](CCl)CN3C(=O)c2cc3c4c(ccc3[nH]2)N(C(=O)c2ccc(NC(=O)[C@H](CCCNC(N)=O)NC(=O)CCCCCN3C(=O)C=CC3=O)cc2)CC4)CC1 [Compound C] | Compound E>Compound F>Compound A>Compound C, Compound D>Compound B>Compound G | No |  |  |  |
| CN1CCN(C(=O)Oc2cc3c(c4ccccc24)[C@H](CCl)CN3C(=O)c2cc3cc(NC(=O)c4ccc(NC(=O)[C@H](CCC(=O)O)NC(=O)CCCCCN5C(=O)C=CC5=O)cc4)ccc3[nH]2)CC1 [Compound F] | Compound E>Compound F>Compound A>Compound C, Compound D>Compound B>Compound G | No |  |  |  |
| CN1CCN(C(=O)Oc2cc3c(c4ccccc24)[C@H](CCl)CN3C(=O)c2cc3cc(NC(=O)c4ccc(NC(=O)[C@H](CCCCN)NC(=O)CCCCCN5C(=O)C=CC5=O)cc4)ccc3[nH]2)CC1 [Compound E] | Compound E>Compound F>Compound A>Compound C, Compound D>Compound B>Compound G | Yes | ~4 h |  |  |
| CN1CCN(C(=O)Oc2cc3c(c4ccccc24)[C@H](CCl)CN3C(=O)c2cc3cc(NC(=O)c4ccc(NC(=O)[C@H](CCCNC(N)=O)NCCNC(=O)CCCCCN5C(=O)C=CC5=O)cc4)ccc3[nH]2)CC1 [Compound B] | Compound E>Compound F>Compound A>Compound C, Compound D>Compound B>Compound G | No |  |  |  |
| CN1CCN(C(=O)Oc2cc3c(c4ccccc24)[C@H](CCl)CN3C(=O)c2cc3cc(NC(=O)c4ccc(NC(=O)[C@H](CO)NC(=O)CCCN5C(=O)C=CC5=O)cc4)ccc3[nH]2)CC1 [Compound D] | Compound E>Compound F>Compound A>Compound C, Compound D>Compound B>Compound G | No |  | cleaved by cathepsin B |  |
| CN1CCN(C(=O)Oc2cc3c(c4ccccc24)[C@H](CCl)CN3C(=O)c2cc3cc(NC(=O)c4ccc(NCC(=O)NCCNC(=O)CCCN5C(=O)C=CC5=O)cc4)ccc3[nH]2)CC1 [Compound G] | Compound E>Compound F>Compound A>Compound C, Compound D>Compound B>Compound G |  |  |  |  |
| CN1CCN(C(=O)Oc2cc3c(c4ccccc24)[C@H](CCl)CN3C(=O)c2cc3cc(NC(=O)c4ccc(NC(=O)[C@H](CCCNC(N)=O)NC(=O)CCCCCN5C(=O)C=CC5=O)cc4)ccc3[nH]2)CC1 [Compound A] | Compound E>Compound F>Compound A>Compound C, Compound D>Compound B>Compound G | Yes | ~24 h |  | cleaved by cathepsin B |
